In ChEMBL document CHEMBL2311451, “Discovery of a selective M₄ positive allosteric modulator based on the 3-amino-thieno[2,3-b]pyridine-2-carboxamide scaffold: development of ML253, a potent and brain penetrant compound that is active in a preclinical model of schizophrenia” (Bioorg Med Chem Lett, 2013):

How the values were obtained:
[1] = target: T1, Muscarinic acetylcholine receptor M4 (Homo sapiens, UniProt P08173); experiment: Positive allosteric modulation of human muscarinic M4 receptor expressed in CHO-K1 cells assessed as leftward shift in acetylcholine response treated for 144 secs prior to acetylcholine addition measured for 5 mins by Fluo-4-AM based calcium mobilization assay; assay type: functional, cell-based
T1 sequence (P08173 whole entry): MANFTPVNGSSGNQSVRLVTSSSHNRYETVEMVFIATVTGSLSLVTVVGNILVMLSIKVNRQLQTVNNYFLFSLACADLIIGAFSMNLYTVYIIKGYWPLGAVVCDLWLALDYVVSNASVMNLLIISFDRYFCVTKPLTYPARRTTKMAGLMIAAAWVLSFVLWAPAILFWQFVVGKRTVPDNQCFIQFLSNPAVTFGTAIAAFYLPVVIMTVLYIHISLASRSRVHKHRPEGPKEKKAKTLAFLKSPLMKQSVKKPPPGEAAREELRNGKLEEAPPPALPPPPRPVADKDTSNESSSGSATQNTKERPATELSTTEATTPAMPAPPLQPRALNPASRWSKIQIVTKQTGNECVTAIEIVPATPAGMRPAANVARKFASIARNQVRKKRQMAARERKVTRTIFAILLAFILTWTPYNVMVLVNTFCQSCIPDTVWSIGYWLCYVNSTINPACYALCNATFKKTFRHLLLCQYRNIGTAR

[2] = target: T2, Muscarinic acetylcholine receptor M4 (Homo sapiens) (UniProt P08173); experiment: Positive allosteric modulation of human muscarinic M4 receptor expressed in CHO-K1 cells assessed as leftward shift in acetylcholine response treated for 144 secs prior to acetylcholine addition measured for 5 mins by Fluo-4-AM based calcium mobilization assay relative to control; assay type: functional, cell-based
T2 sequence (whole entry): T1 sequence (P08173 whole entry)

[3] = target: Muscarinic acetylcholine receptor M2 (Rattus norvegicus, UniProt P10980); experiment: Positive allosteric modulation of rat muscarinic M2 receptor assessed as acetylcholine response
[4] = Volume of distribution at steady state in rat at 1 mg/kg, iv; assay type: ADME, organism-based; design: dose 1 mg/kg, route intravenous; conditions: in vivo, read-out: Vdss
[5] = target: Muscarinic acetylcholine receptor M1 (Rattus norvegicus, UniProt P08482); experiment: Positive allosteric modulation of rat muscarinic M1 receptor assessed as acetylcholine response
Rattus norvegicus [6] = experiment: Antipsychotic activity in Sprague-Dawley rat assessed as reversal of amphetamine-induced hyperlocomotion at 100 mg/kg, ip after 90 mins; assay type: functional; conditions: route intraperitoneal
[7] = target: Muscarinic acetylcholine receptor M4 (Rattus norvegicus) (UniProt P08485); experiment: Positive allosteric modulation of rat muscarinic M4 receptor assessed as acetylcholine response at 10 uM relative to acetylcholine
[8] = target: Muscarinic acetylcholine receptor M3 (Homo sapiens, UniProt P20309); experiment: Positive allosteric modulation of human muscarinic M3 receptor expressed in CHO-K1 cells assessed as leftward shift in acetylcholine response treated for 144 secs prior to acetylcholine addition measured for 5 mins by Fluo-4-AM based calcium mobilization assay; assay type: functional, cell-based
[9] = target: T2, Muscarinic acetylcholine receptor M4 (Homo sapiens); experiment: Positive allosteric modulation of human muscarinic M4 receptor expressed in CHO-K1 cells assessed as leftward shift in acetylcholine response at 10 uM treated for 144 secs prior to acetylcholine addition measured for 5 mins by Fluo-4-AM based calcium mobilization assay relative to acetylcholine; assay type: functional, cell-based
[10] = target: Muscarinic acetylcholine receptor M1 (Homo sapiens, UniProt P11229); experiment: Positive allosteric modulation of human muscarinic M1 receptor expressed in CHO-K1 cells assessed as leftward shift in acetylcholine response treated for 144 secs prior to acetylcholine addition measured for 5 mins by Fluo-4-AM based calcium mobilization assay; assay type: functional, cell-based
Plasma = experiment: Fraction unbound in rat plasma; assay type: ADME, cell-free
Rattus norvegicus [11] = experiment: Antipsychotic activity in Sprague-Dawley rat assessed as reversal of amphetamine-induced hyperlocomotion at 56.6 mg/kg, ip after 90 mins; assay type: functional; conditions: route intraperitoneal
Rattus norvegicus [12] = experiment: Antipsychotic activity in Sprague-Dawley rat assessed as reversal of amphetamine-induced hyperlocomotion at 30 mg/kg, ip after 90 mins; assay type: functional; conditions: route intraperitoneal
Rattus norvegicus [13] = experiment: Antipsychotic activity in Sprague-Dawley rat assessed as reversal of amphetamine-induced hyperlocomotion at 3 mg/kg, ip after 90 mins; assay type: functional; conditions: route intraperitoneal
[14] = AUC in rat at 1 mg/kg, iv; assay type: ADME, organism-based; design: dose 1 mg/kg, route intravenous; conditions: plasma
[15] = Systemic plasma AUC in rat at 10 mg/kg, ip up to 6 hrs
[16] = target: T3, Muscarinic acetylcholine receptor M4 (Rattus norvegicus, UniProt P08485); experiment: Positive allosteric modulation of rat muscarinic M4 receptor assessed as acetylcholine response
T3 sequence (P08485 whole entry): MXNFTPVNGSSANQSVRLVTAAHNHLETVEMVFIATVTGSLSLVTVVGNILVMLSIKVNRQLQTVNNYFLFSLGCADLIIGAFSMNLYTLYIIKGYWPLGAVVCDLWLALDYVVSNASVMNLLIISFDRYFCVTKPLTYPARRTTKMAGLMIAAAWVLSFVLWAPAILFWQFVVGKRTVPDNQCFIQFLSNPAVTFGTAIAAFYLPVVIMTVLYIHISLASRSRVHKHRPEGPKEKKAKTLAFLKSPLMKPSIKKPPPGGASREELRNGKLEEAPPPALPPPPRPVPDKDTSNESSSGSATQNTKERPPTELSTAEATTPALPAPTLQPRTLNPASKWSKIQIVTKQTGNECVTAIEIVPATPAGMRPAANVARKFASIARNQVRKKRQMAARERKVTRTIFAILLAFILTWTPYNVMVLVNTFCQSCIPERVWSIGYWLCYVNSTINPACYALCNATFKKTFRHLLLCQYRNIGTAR

Rattus norvegicus [17] = species on record: Rattus norvegicus; experiment: Binding affinity to rat GABAA receptor at 10 uM by radioligand binding assay
[18] = Mean residence time in rat at 1 mg/kg, iv; assay type: ADME, organism-based; design: dose 1 mg/kg, route intravenous; conditions: in vivo
Rattus norvegicus [19] = experiment: Antipsychotic activity in ip dosed Sprague-Dawley rat assessed as reversal of amphetamine-induced hyperlocomotion after 90 mins; assay type: functional, organism-based
[20] = target: Muscarinic acetylcholine receptor M5 (Rattus norvegicus, UniProt P08911); experiment: Positive allosteric modulation of rat muscarinic M5 receptor assessed as acetylcholine response
[21] = Clearance in rat at 1 mg/kg, iv; assay type: ADME, organism-based; design: dose 1 mg/kg, route intravenous; conditions: in vivo
[22] = target: Sodium-dependent dopamine transporter (Homo sapiens) (UniProt Q01959); experiment: Binding affinity to human DAT at 10 uM by radioligand binding assay
[23] = target: Muscarinic acetylcholine receptor M3 (Rattus norvegicus, UniProt P08483); experiment: Positive allosteric modulation of rat muscarinic M3 receptor assessed as acetylcholine response
[24] = target: Muscarinic acetylcholine receptor M5 (Homo sapiens, UniProt P08912); experiment: Positive allosteric modulation of human muscarinic M5 receptor expressed in CHO-K1 cells assessed as leftward shift in acetylcholine response treated for 144 secs prior to acetylcholine addition measured for 5 mins by Fluo-4-AM based calcium mobilization assay; assay type: functional, cell-based
Rattus norvegicus [25] = experiment: Antipsychotic activity in Sprague-Dawley rat assessed as reversal of amphetamine-induced hyperlocomotion at 10 mg/kg, ip after 90 mins; assay type: functional; conditions: route intraperitoneal
Brain = experiment: Drug level in rat brain at 10 mg/kg, ip up to 6 hrs; assay type: ADME, organism-based; design: dose 10 mg/kg, route intraperitoneal; conditions: in vivo
[26] = Half life in rat at 1 mg/kg, iv; assay type: ADME, organism-based; design: dose 1 mg/kg, route intravenous; conditions: in vivo
[27] = target: Muscarinic acetylcholine receptor M2 (Homo sapiens, UniProt P08172); experiment: Positive allosteric modulation of human muscarinic M2 receptor expressed in CHO-K1 cells assessed as leftward shift in acetylcholine response treated for 144 secs prior to acetylcholine addition measured for 5 mins by Fluo-4-AM based calcium mobilization assay; assay type: functional, cell-based
Sequence of Muscarinic acetylcholine receptor M2 (Homo sapiens, UniProt P08172) (P08172 whole entry): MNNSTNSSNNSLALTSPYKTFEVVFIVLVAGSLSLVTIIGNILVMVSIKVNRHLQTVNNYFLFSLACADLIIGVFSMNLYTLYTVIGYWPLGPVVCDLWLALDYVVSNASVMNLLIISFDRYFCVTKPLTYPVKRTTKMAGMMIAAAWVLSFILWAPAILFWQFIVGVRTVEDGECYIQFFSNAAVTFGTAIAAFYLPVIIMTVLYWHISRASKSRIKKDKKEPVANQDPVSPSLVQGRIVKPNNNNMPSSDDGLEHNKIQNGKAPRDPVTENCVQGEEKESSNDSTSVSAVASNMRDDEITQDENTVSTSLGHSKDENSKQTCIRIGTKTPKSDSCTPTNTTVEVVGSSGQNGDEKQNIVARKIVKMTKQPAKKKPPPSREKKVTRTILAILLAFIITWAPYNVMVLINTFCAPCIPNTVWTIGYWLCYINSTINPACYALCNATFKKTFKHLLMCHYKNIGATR

Sequence of Muscarinic acetylcholine receptor M3 (Homo sapiens, UniProt P20309) (P20309 whole entry): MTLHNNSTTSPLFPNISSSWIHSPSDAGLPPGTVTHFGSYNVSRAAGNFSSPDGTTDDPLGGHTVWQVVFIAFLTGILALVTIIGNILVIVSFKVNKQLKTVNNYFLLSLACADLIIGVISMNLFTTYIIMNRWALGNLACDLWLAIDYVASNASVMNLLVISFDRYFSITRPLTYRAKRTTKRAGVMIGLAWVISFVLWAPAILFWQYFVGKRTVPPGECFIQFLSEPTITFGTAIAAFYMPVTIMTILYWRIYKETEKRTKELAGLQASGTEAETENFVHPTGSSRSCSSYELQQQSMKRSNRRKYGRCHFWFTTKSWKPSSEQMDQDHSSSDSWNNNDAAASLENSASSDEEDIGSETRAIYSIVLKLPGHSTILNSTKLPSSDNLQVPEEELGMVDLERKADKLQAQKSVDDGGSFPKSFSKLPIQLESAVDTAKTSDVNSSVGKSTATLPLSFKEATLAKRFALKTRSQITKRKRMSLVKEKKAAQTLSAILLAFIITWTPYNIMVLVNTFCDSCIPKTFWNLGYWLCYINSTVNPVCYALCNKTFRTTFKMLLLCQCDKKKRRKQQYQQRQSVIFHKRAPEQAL
Sequence of Muscarinic acetylcholine receptor M1 (Rattus norvegicus, UniProt P08482) (P08482 whole entry): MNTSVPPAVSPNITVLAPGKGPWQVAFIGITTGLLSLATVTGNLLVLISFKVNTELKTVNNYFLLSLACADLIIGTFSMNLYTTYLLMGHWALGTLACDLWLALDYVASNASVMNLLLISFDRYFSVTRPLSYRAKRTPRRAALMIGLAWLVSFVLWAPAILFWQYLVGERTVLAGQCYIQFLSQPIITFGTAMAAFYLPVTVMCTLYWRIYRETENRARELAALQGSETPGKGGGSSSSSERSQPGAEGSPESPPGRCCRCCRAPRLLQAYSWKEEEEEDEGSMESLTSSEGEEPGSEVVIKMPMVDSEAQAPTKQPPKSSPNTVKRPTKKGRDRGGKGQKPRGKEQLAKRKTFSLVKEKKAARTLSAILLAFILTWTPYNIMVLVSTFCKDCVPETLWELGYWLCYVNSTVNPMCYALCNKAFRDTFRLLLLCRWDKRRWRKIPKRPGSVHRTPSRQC
Sequence of Muscarinic acetylcholine receptor M1 (Homo sapiens, UniProt P11229) (P11229 whole entry): as the sequence (P08482 whole entry) above, with V5A, S254T, S309P, K320R, G337A, V413I counted along it
Sequence of Muscarinic acetylcholine receptor M3 (Rattus norvegicus, UniProt P08483) (P08483 whole entry): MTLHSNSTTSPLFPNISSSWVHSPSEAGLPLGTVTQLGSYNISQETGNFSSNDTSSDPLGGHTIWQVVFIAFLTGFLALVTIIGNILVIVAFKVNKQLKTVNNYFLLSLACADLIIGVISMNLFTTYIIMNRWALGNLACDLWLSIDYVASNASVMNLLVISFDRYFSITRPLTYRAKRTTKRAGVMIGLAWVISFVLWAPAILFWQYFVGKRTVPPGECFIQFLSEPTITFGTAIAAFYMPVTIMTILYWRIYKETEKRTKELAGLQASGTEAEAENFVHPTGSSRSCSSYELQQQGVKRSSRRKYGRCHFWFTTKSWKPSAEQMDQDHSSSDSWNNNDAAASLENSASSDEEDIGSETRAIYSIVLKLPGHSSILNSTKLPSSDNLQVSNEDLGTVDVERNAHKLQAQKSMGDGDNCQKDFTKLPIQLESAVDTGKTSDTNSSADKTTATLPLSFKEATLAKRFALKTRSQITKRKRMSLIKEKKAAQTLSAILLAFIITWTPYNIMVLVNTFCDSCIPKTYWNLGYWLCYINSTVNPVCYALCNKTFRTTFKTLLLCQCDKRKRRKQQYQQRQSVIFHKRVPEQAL
Sequence of Sodium-dependent dopamine transporter (Homo sapiens) (Q01959 whole entry): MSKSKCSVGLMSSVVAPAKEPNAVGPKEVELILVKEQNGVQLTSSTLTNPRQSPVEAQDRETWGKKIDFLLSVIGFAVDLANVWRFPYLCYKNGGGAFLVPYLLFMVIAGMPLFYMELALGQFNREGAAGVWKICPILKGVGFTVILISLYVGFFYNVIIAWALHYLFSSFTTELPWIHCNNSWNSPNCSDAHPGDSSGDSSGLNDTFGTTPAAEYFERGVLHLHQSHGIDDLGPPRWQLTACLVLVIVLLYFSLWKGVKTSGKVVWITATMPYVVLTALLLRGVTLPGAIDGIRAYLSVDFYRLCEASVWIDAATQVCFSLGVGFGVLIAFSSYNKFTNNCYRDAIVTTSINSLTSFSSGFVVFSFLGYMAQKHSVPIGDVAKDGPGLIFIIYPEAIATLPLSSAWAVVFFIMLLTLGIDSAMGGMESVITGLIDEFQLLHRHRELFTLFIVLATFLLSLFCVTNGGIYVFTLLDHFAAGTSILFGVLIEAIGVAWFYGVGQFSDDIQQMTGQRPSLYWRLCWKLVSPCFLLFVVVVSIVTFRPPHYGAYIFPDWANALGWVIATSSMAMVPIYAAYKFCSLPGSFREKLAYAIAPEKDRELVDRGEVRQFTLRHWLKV
Sequence of Muscarinic acetylcholine receptor M5 (Rattus norvegicus, UniProt P08911) (P08911 whole entry): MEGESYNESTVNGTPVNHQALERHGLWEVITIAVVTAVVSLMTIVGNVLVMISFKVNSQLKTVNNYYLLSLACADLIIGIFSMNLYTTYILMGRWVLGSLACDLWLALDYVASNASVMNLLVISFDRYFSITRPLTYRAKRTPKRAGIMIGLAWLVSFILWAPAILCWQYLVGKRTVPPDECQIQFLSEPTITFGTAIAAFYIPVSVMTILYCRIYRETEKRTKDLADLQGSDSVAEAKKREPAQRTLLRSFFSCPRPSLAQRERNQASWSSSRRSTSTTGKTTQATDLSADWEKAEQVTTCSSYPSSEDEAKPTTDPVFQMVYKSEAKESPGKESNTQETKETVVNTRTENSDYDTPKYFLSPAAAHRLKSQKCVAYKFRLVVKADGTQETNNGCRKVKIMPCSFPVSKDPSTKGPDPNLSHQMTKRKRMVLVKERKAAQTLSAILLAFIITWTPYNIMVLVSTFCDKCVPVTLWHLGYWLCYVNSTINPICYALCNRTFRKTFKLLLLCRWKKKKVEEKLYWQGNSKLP
Sequence of Muscarinic acetylcholine receptor M2 (Rattus norvegicus, UniProt P10980) (P10980 whole entry): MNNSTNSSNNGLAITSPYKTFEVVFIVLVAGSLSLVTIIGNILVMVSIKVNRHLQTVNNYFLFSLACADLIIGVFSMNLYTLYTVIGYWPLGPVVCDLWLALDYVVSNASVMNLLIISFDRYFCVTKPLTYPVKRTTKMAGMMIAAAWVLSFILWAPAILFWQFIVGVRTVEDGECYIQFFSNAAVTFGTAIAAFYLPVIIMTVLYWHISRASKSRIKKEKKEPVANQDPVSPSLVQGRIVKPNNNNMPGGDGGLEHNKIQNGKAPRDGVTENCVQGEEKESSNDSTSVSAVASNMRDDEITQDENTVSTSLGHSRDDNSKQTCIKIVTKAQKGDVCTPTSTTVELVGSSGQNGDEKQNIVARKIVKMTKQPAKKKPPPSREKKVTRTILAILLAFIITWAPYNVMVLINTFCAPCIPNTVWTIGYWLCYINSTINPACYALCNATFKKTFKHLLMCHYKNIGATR
Sequence of Muscarinic acetylcholine receptor M5 (Homo sapiens, UniProt P08912) (P08912 whole entry): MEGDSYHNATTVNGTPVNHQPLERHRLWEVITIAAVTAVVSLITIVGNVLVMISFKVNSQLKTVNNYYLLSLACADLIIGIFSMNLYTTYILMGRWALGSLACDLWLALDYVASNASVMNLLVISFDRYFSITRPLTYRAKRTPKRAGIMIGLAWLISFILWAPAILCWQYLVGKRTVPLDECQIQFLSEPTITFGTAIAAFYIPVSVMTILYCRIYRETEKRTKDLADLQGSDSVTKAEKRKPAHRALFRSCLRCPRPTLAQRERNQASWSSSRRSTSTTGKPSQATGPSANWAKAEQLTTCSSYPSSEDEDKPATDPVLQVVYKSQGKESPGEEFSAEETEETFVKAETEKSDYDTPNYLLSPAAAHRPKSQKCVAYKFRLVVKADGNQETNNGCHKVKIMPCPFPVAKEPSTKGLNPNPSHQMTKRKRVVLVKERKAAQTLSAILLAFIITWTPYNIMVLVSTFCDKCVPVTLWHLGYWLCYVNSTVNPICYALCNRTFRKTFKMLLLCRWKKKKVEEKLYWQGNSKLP

Question: For `COc1ccc(CNC(=O)c2sc3nc(C)c(Cl)c(C)c3c2N)cc1`, which EC50 ([1]; read-out: EC50) is on record?
Answer: 107 nM

Question: And the %max [2]?
Answer: 83.6%

Question: For `Cc1nc2sc(C(=O)NC(C)c3ccccn3)c(N)c2c(C)c1Cl` (stereo not drawn), which EC50 ([1]; read-out: EC50) is on record?
Answer: 1370 nM

Question: And the %max [2]?
Answer: 51.1%

Question: Which results are given for `Cc1nc2sc(C(=O)NC(C)c3cccnc3)c(N)c2c(C)c1Cl` (stereo not drawn)?
Answer: EC50 ([1]; read-out: EC50): 669 nM; %max [2]: 57.3%

Question: Which EC50 ([1]; read-out: EC50) does the source give for `Cc1nc2sc(C(=O)NCc3ccnnc3)c(N)c2c(C)c1Cl` here?
Answer: 326 nM

Question: And the %max [2]?
Answer: 74.5%

Question: With `Cc1nc2sc(C(=O)NCc3ccccc3)c(N)c2c(C)c1Cl` as the compound, how does the EC50 ([1]; read-out: EC50) read?
Answer: 108 nM

Question: What about the %max [2] of the same compound?
Answer: 81%

Question: For `Cc1nc2sc(C(=O)NCCc3cccnc3)c(N)c2c(C)c1Cl`, which EC50 ([1]; read-out: pEC50 (converted)) is on record?
Answer: > 30200 nM

Question: What does the source list for `Cc1nc2sc(C(=O)NC(C)C)c(N)c2c(C)c1Cl`?
Answer: EC50 ([1]; read-out: EC50): 147 nM; %max [2]: 77.3%

Question: What does the source list for `Cc1nc2sc(C(=O)NCc3ccc(Cl)cc3)c(N)c2c(C)c1Cl`?
Answer: EC50 ([1]; read-out: EC50): 180 nM; %max [2]: 33.2%

Question: Which results are given for `Cc1cc(CNC(=O)c2sc3nc(C)c(Cl)c(C)c3c2N)ccn1`?
Answer: EC50 ([1]; read-out: EC50): 61 nM; %max [2]: 75.8%

Question: Which results are given for `Cc1nc2sc(C(=O)NC3CCOCC3)c(N)c2c(C)c1Cl`?
Answer: EC50 ([1]; read-out: EC50): 289 nM; %max [2]: 78.6%

Question: Which results are given for `Cc1nc2sc(C(=O)NC(C)c3ccncc3)c(N)c2c(C)c1Cl` (stereo not drawn)?
Answer: EC50 ([1]; read-out: EC50): 600 nM; %max [2]: 64.1%

Question: With `Cc1nc2sc(C(=O)NCCc3ccccn3)c(N)c2c(C)c1Cl` as the compound, how does the EC50 ([1]; read-out: EC50) read?
Answer: 844 nM

Question: And the %max [2]?
Answer: 61.7%

Question: With `CCOc1ccc(NC(=O)c2sc3nc(C)c(Cl)c(C)c3c2N)cc1` as the compound, how does the EC50 ([1]; read-out: EC50) read?
Answer: > 30000 nM

Question: For `Cc1nc2sc(C(=O)NCc3ccncc3)c(N)c2c(C)c1Cl`, which EC50 [3] is on record?
Answer: > 30000 nM

Question: And the EC50 ([1]; read-out: EC50)?
Answer: 56 nM

Question: And the Vd [4]?
Answer: 2.6 L/kg

Question: What about the EC50 [5] of the same compound?
Answer: > 30000 nM

Question: And the Activity (Rattus norvegicus [6])?
Answer: 57.3%

Question: What about the fold change (FC) [7] of the same compound?
Answer: 49.6

Question: What about the EC50 [8] of the same compound?
Answer: > 30000 nM

Question: And the fold change (FC) [9]?
Answer: 106

Question: And the EC50 [10]?
Answer: > 30000 nM

Question: What about the Fu (Plasma) of the same compound?
Answer: 1.7%

Question: And the Activity (Rattus norvegicus [11])?
Answer: 53.7%

Question: And the Activity (Rattus norvegicus [12])?
Answer: 47.9%

Question: And the Activity (Rattus norvegicus [13])?
Answer: 18.7%

Question: And the AUC [14]?
Answer: 175 ng·h/mL

Question: And the AUC at 6 h [15]?
Answer: 3880 ng·h/mL

Question: And the EC50 [16]?
Answer: 176 nM

Question: What about the inhibition (Rattus norvegicus [17]) of the same compound?
Answer: 64%

Question: And the MRT [18]?
Answer: 27.5 min

Question: What about the Activity (Rattus norvegicus [19]) of the same compound?
Answer: Dose-dependent effect

Question: And the EC50 [20]?
Answer: > 30000 nM

Question: What about the clearance [21] of the same compound?
Answer: 104 mL/min/kg

Question: What about the inhibition [22] of the same compound?
Answer: 74%

Question: What about the EC50 [23] of the same compound?
Answer: > 30000 nM

Question: And the EC50 [24]?
Answer: > 30000 nM

Question: And the Activity (Rattus norvegicus [25])?
Answer: 25.7%

Question: What about the Drug uptake (Brain) of the same compound?
Answer: 3410 ng/g

Question: And the %max [2]?
Answer: 94.1%

Question: And the half-life [26]?
Answer: 17.5 min

Question: And the EC50 [27]?
Answer: > 30000 nM

Question: Which results are given for `Cc1nc2sc(C(=O)NC3CCCCC3)c(N)c2c(C)c1Cl`?
Answer: EC50 ([1]; read-out: EC50): 226 nM; %max [2]: 41.4%

Question: What does the source list for `Cc1nc2sc(C(=O)NCCC3CCCN3C)c(N)c2c(C)c1Cl` (stereo not drawn)?
Answer: EC50 ([1]; read-out: EC50): 926 nM; %max [2]: 38%

Question: For `Cc1nc2sc(C(=O)NC(C)(C)C)c(N)c2c(C)c1Cl`, which EC50 ([1]; read-out: EC50) is on record?
Answer: 307 nM

Question: And the %max [2]?
Answer: 68.3%

Question: Which results are given for `Cc1ccc(CNC(=O)c2sc3nc(C)c(Cl)c(C)c3c2N)cc1`?
Answer: EC50 ([1]; read-out: EC50): 104 nM; %max [2]: 46.8%

Question: With `Cc1nc2sc(C(=O)NC3COC3)c(N)c2c(C)c1Cl` as the compound, how does the EC50 ([1]; read-out: EC50) read?
Answer: 2010 nM

Question: What about the %max [2] of the same compound?
Answer: 69.9%
